This is an account of results in US5147876A, “2,6-di,2,4,6-, 2,5,6-tri and 2,4,5,6-tetra-substituted pyrimidines, their pharmaceutically acceptable salts, pharmaceutical compositions containing same and their use in the treatment of neurological diseases” (Mitsui Petrochemical Industries, Ltd., priority 1988, dated 1992).

The subject of data set [1] is rats with crushed sciatic nerves. The data set is described as follows: Weight of muscle extensor digitorum longus in rats with crushed sciatic nerves. The format is in vivo, rat (male Wistar). Particulars: thirty days after operation, mean ± S.D. The protocol:
(§1) The therapeutic effect of the compound of the invention was tested on rats having crushed sciatic nerves as a model of peripheral nervous disorder using (1) a change in the action of the hind paw with the crushed sciatic nerves and (2) a change in the weight of the muscle as an index of the course of degeneration and regeneration of peripheral nerves.
(§2) In the experiment, male Wistar rats (6 weeks old), seven per group, were used. The sciatic nerves were crushed by a method similar to the method of Yamatsu et al. (see Kiyomi Yamatsu, Takenori Kaneko, Akifumi Kitahara and Isao Ohkawa, Journal of Japanese Pharmacological Society, 72, 259-268 (1976) and the method of Hasegawa et al. (see Kazuo Hasegawa, Naoji Mikuni and Yutaka Sakai, Journal of Japanese Pharmacological Society, 74, 721-734 (1978). Specifically, under anesthesia with pentobarbital (40 mg/kg, i.p.), the left side sciatic nerve was exposed at the femur, and a specific site of the exposed sciatic nerve was crushed for 30 seconds by using a hemostat. After the crushing, the operation site was immediately sutured. Thereafter, vincristine known to retard the regeneration of the peripheral nerve was intraperitoneally administered in a dose of 100 g/kg once a week.
(§3) Compounds of the invention were selected as test drugs, and administered intraperitoneally once a day from the day of crushing to 30th day from then. To a control group, only 0.9 % saline was administered.
It is known that removal of a nerve or its disorder causes atorphy of the muscle which is under its control, and the atrophy is gradually cured by re-control by the nerve. For this reason, a change in the weight of the muscle, which is quantitative, was selected as an index. Thirty days after the operation, the muscles extensor digitorum longus of both hind paws which are muscles under the control of sciatic nerves were extracted under anesthesia, and their weights were measured. The ratio of the weight of the muscle extensor digitorum longus on the crushed side to that of normal side was calculated and expressed in percentage (%).

Data set [2] deals with neuro-2a (mouse neuroblastoma cells). The data set can be described thus: Action on neuro-2a: proportion of cells containing outgrown neurites. The format is cell-based. Particulars: mean ± S.D. The essentials:
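Mouse neuro-2a cells at 1,000 cells/well in DMEM with 10% FCS were cultured one day at 37 °C, 5% CO2, then glutaraldehyde-fixed and methylene-blue-stained. The proportion of cells bearing a neurite at least twice the cell's long diameter was counted over >200 cells; up to 6 concentrations, triplicate runs.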

Another data set can be described thus: Acute toxicity on mice. Particulars: mouse, in vivo, ip, 24 hours after administration; read-out: Estimated LD50. The format is in vivo. The protocol:
The acute toxicity of the compounds of the invention was examined by the following method.
Male ddy-strain 5-week old mice, 4-6- per group, were used as experimental animals. Each of the compounds was intraperitoneally (i.p.), and the toxicity of the compound was assessed 24 hours after the administration.

In data set [3] the test system is NS-20Y (mouse neuroblastoma cells). The data set can be described thus: Activity on NS-20Y cells: appearance of neurites. The format is cell-based. The essentials: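 Mouse neuroblastoma NS-20Y cells were grown in polyornithine-coated dishes in DMEM with 10 % FCS, 100 units/ml penicillin G sodium and 100 micrograms/ml streptomycin sulfate, at 37° C under 5 % carbon dioxide, and exposed to compound. Cells were fixed with 4 % glutaraldehyde, stained with 0.05 % methylene blue, and the fraction bearing neurites at least twice the cell's long diameter was counted microscopically.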

For data set [4], the system named is rats with lesioned nigral dopaminergic nerve cells. The data set is described as follows: Motor imbalance (methamphetamine-induced rotation) after 6-hydroxydopamine lesion and transplantation of fetal cerebral cells. The format is in vivo, rat (female Wistar). The protocol:
Nigral dopaminergic nerve cells at the left side of the brain of 4-week old female Wistar rats (body weight 100 g) were lesioned by injecting a very small quantity of 6-hydroxydopamine. […] Upon administration of methamphethamine (5 mg/kg, i.p.) to the rats having the lesioned nigral dopaminergic nerve cells, they began rotational movement toward the lesioned side.
After two weeks from the destruction by the administration of the drug, portions of the […] containing dopamine cells (i.e., substantial nigra and the tagmentum at the abdomen side) were cut from the brain of a fetal rat of 14 to 17 days of age, cut finely, and treated with trypsin. Then, the extracted tissues were incubated at 37° C. for 30 minutes, and the tissues were subjected to pipetting to form a suspension. Five microliters of the suspension was transplanted each into two sites of the caudate nucleus of the lesioned side (10 microliters in total, about 10^5 cells)
Compound No. 168 of the invention was administered in a dose of 156 mg/kg (i.p.) for 4 days from the day of transplantation, then with a suspension of 7 days, for 10 days in a dose of 50 mg/kg (i.p.) from the 11th day. Compound No. 296 was administered in a dose of 153 mg/kg, and then 50 mg/kg, in accordance with the same schedule.
Compound No. 3144 was also administered in accordance with the same schedule in a dose of 135 mg/kg, and then 45 mg/kg.
The rotational movements induced by administration of methamphetamine were examined 2 weeks and 1 week before, and 2 (or 3), 4, 6 and 8 weeks after, the transplantation and the administration of the drug. The number of rotational movements for the first one minute was counted at intervals of 10 minutes after the administration of methamphetamine, and the total number of rotational movements counted six times was averaged to find a mean number of the rotational movements.

Data set [5] deals with rats with crushed sciatic nerves. The data set is described as follows: Twitch tension of hind paw in rats with crushed sciatic nerves. It is filed as in vivo, rat (male Wistar). As to the method: as §1, §2, §3
Twitch tension, which is a transient tension incident to contraction of the dominated muscles that occurs by electrical stimulation or the like of motor nerves, as is the case with the interdigit distance to be described, is considered to reflect functional changes of the nerves and muscles.
[…] J. Neurosci. Methods, 19, 259 (1987)]. Specifically, the hair on the hind paw of rats was shaven, and coated with Cardiocream (a product of Nihon Denko K.K.). Then, to the skin of the hind paw, electrodes with an alligator were attached The cathode was attached to the rear portion of the trochiter, and the […], to a site 1 cm rearwardly of the […] electrode and 1 cm toward its back. The rat was fixed on its back, and the hind paw to be measured was fixed perpendicularly. A silk yarn, about 20 cm long, was connected at one end to the third efferent toe joint of the hind paw to be measured and at the other end to a tension transducer. Isotonic contractions of the third muscle digitus flexus were recorded on a polygraph. Electrical stimulation was effected at a voltage of 100V for a continuous duration of 1 msec. with rectangular waves at a frequency of 2 Hz. The static tension was 15 to 30 g, and 10 stimulations were repeated 3 times with intervals of 15 seconds. The contracting force was expressed as tension (g). From the measured values of both paws, the recovery ratio (%, left/right) of the contracting force of the paw with crushed nerves was calculated.

In data set [6] the test system is rats having crushed sciatic nerves. The data set can be described thus: Interdigit distance in rats with crushed sciatic nerves. It is filed as in vivo, rat (male Wistar). Particulars: 30 mg/kg, i.p. The protocol: as §1
as §2, with “Thereafter, vincristine known to retard the regeneration of the peripheral nerve was intraperitoneally administered in a dose of 100 g/kg once a week.” left out
By a method similar to the method of Hasegawa [Hasegawa, K., Experientia, 34, 750-751 (1978)], the distance between the first and fifth digits of the hind paw was measured.
The ratio of the measured distance to the interdigit distance in a normal hind paw was calculated and expressed in percentage (%). […]

[7] abbreviates: 3 W after transplantation, i.p. 168: 156 then 50, 296: 153 then 50, 3144: 135 then 45 mg/kg.
Where [8] appears, read: 4 W after transplantation, i.p. 168: 156 then 50, 296: 153 then 50, 3144: 135 then 45 mg/kg.
[9] abbreviates: 6 W after transplantation, i.p. 168: 156 then 50, 296: 153 then 50, 3144: 135 then 45 mg/kg.
Where [10] appears, read: 8 W after transplantation, i.p. 168: 156 then 50, 296: 153 then 50, 3144: 135 then 45 mg/kg.
The mark [11] stands for this setting: -1 W (before transplantation and drug).
[12] abbreviates: Table 14, 30 mg/kg i.p. once a day, 30 days, mean ± S.D., 168: *3 p < 0.01, 296: *2 p < 0.05.

In the case of `CN(C(=O)c1ccccc1)c1ccnc(N2CCC(c3ccccc3)CC2)n1` [Compound 168, 4-(N-methylbenzamino)-2-(4-phenylpiperidino)pyrimidine p-toluenesulfonate], the “Weight of muscle extensor digitorum longus left/right” value is recorded as 52.1 ± 5.4% in data set [1] (10 mg/kg) and 59.4 ± 11.8% in data set [1] (30 mg/kg, *2 p < 0.05). Besides, the “Number of cells having neurites with a length at least two times the diameter of each cell/total number of cells” value (from here on “Number … of each cell/total number of cells”) in data set [2] (0.05 mM) turned out to be 23.8 ± 2%; in data set [2] (0.1 mM), 35.7 ± 0.8%; in data set [2] (0.2 mM), 24.4 ± 6.9%; in data set [2] (0.3 mM), 14.6 ± 4.3%. Moreover, the LD50 (in general, the dose expected to kill half of the subjects tested) at 24 h in “Acute toxicity on mice” is greater than 1000 mg/kg. Besides, the “Number of cells in which neurites appeared/total number of cells” value is given as 26/50 in data set [3] (24 hours, 0.1 mM); 12/50 in data set [3] (24 hours, 0.25 mM); 20/55 in data set [3] (48 hours, 0.1 mM). The “mean number of the rotational movements” value in data set [4] (setting [7]) turned out to be 9.1 ± 5.6; in data set [4] (setting [8]), 4.5 ± 4.5; in data set [4] (setting [9]), 1.5 ± 3.9; in data set [4] (setting [10]), 0.8 ± 2.1; in data set [4] (setting [11]), 13.3 ± 7.8. The Twitch tension left/right in data set [5] (Table 14, 10 mg/kg i.p. once a day, 30 days, mean ± S.D., *2 p < 0.05) is 48.4 ± 11.8%; in data set [5] (setting [12]), 51.2 ± 13.6%.

With `CN(C(=O)c1ccco1)c1ccnc(N2CCC(c3ccccc3)CC2)n1` [Compound 296], the “Weight of muscle extensor digitorum longus left/right” value in data set [1] (30 mg/kg, *2 p < 0.05) is listed as 56.9 ± 9.7%. The “Number … of each cell/total number of cells” value in data set [2] (0.1 mM) is listed as 44.4 ± 5.5%; in data set [2] (0.3 mM), 22.4 ± 3.0%. The LD50 at 24 h in the data set “Acute toxicity on mice” was greater than 1000 mg/kg. Moreover, the “Number of cells in which neurites appeared/total number of cells” value in data set [3] (24 hours, 0.1 mM) was 9/49; in data set [3] (48 hours, 0.1 mM) it was 2/50. Also, the “mean number of the rotational movements” value in data set [4] (setting [7]) worked out at 8.4 ± 5.0; in data set [4] (setting [8]) it was 3.1 ± 3.4; in data set [4] (setting [9]), 0.9 ± 2.3; in data set [4] (setting [10]), 1.0 ± 1.5; in data set [4] (setting [11]), 13.2 ± 4.1. In data set [5] (setting [12]), this molecule displayed a Twitch tension left/right of 48.1 ± 9.4%.

For `CN1C(=O)Cc2cnc(N3CCN(C(c4ccccc4)c4ccc(Cl)cc4)CC3)nc21` (stereo not shown) [Compound 3144], the “Number … of each cell/total number of cells” value turned out to be 20.8 ± 4.7% in data set [2] (0.03 mM), 34.1 ± 3.8% in data set [2] (0.1 mM), 44.5 ± 9.7% in data set [2] (0.3 mM) and 32.2 ± 1.6% in data set [2] (1 mM). For the same molecule, the LD50 at 24 h in the data set “Acute toxicity on mice” is 500 to 1000 mg/kg. Also, the “Recovery of the interdigit distance” value was determined as 72.7 ± 14.0% in data set [6] (18th days) and 83.8 ± 12.2% in data set [6] (23rd days). In addition, the “mean number of the rotational movements” value in data set [4] (setting [7]) stood at 7.7 ± 4.7; in data set [4] (setting [8]), 4.0 ± 5.6; in data set [4] (setting [9]), 0.2 ± 2.2; in data set [4] (setting [10]), 1.1 ± 4.1; in data set [4] (setting [11]) it was 14.1 ± 4.7. For the same molecule, the Twitch tension left/right amounted to 54.5 ± 17.1% in data set [5] (Table 15, 30 mg/kg, 18th days) and 57.9 ± 15.5% in data set [5] (Table 15, 30 mg/kg, 23rd days).
